Reference: US20160113890A1, “COMPOSITION FOR STIMULATING NEOVASCULARIZATION AT A SITE IN A SUBJECT COMPRISING DAPSONE AND USE THEREOF” (Samsung Electronics Co., Ltd., priority 2014, published 2016)

How the values were obtained:
VEGFR2 = experiment: Phosphorylation-specific antibody array of soleus muscle protein; type: in vivo, mouse; settings: 20 month-old C57BL/6J mice, 2.0 mg/kg/d for 3 months
Description: In FIG. 10, a vertical axis denotes the amount of protein expressed in the experimental group compared to the control group (fluorescent intensity: arbitrary unit), and a horizontal axis denotes the type of phosphorylated protein measured, where the description in parentheses informs residue and location of the phosphorylated amino acid. […] The microarray analysis was performed by using a Phospho Explorer Antibody array (1312 antibodies, FULL MOON Biosystems), soleus muscle of the mice was obtained, protein was isolated therefrom, and used for the microarray analysis. In FIG. 10, p-VR1 and p-VR2 respectively denote phosphorylated VEGFR1 and VEGFR2.

C57BL/6 mice [1] = experiment: Fluorescein-lectin tracking and immunohistochemical assay on pancreas section; type: in vivo, mouse; settings: old mice, 2.0 mg/kg/d for 3 months
Description: (§1) C57BL/6 mice (hereinafter, also referred to as “B6”) at ages of 7 months and 24 months (female n=18, male n=12, Korean Basic Science Institute) were maintained according to the guideline of the Laboratory Animal Research Center of Sungkyunkwan University School of Medicine. The mice were allowed to have free access to water and feed. Each group of mice (n=5) drank 0.0, 0.5, or 2.0 mg/kg/day of dapsone (available from Tai Guk Pharm. Co.) for 3 months.
(§2) After 3 months, ear skin from both ears, trachea, both retinas, both kidneys, and pancreas were obtained from a mouse selected from each group of mice. In order to obtain these organs, the mouse was anesthetized by intraperitoneal injection of 100 mg/kg of […] (Entobal®) based on the weight of the mouse, […] of 1% paraformaldehyde was flowed through the heart to remove the blood in the body of the mouse. The organs were surgically obtained, and tissue from each of the organs was fixed in 4% of paraformaldehyde for 24 hours to prepare a frozen section having a thickness of 10 um. Immunofluorescence staining using anti-PECAM-1 antibody was performed on a sample of the frozen section. […] The measured fluorescent density denotes a density of endothelial cells, that is, blood vessels. […]

C57BL/6 mice [2] = experiment: Immunohistochemical assay (anti-PECAM-1) on trachea whole-mount of mouse; type: in vivo
Description: as §1
After 3 months, ear skin from both ears, trachea, both retinas, both kidneys, and pancreas were obtained from a mouse selected from each group of mice. In order to obtain these organs, the mouse was anesthetized by intraperitoneal injection of 100 mg/kg of […] (Entobal®) based on the weight of the mouse, […] of 1% paraformaldehyde was flowed through the heart to remove the blood in the body of the mouse. The organs were surgically obtained, and tissue from each of the organs was fixed in 4% of paraformaldehyde for 24 hours to prepare a frozen section having a thickness of 10 um. Immunofluorescence staining using anti-PECAM-1 antibody was performed on a sample of the frozen section. For the immunofluorescence staining, the sample was blocked in a solution containing 5% donkey serum in phosphate buffered solution (PBS) containing 0.3% Triton-X 100 (0.3% PBST) for 1 hour. The anti-PECAM-1 antibody produced from American hamster was added to the solution to allow a primary reaction with antigen of the tissue at 4° C. for 12 hours. The sample was washed 6 times for 10 minutes with 0.3% PBS-T, and an anti-American hamster-Alexa594 antibody was added to 0.3 PBS-T to allow a secondary reaction with the anti-PECAM-1 antibody at 4° C. for 12 hours. The sample was washed 6 times for 10 minutes, attached to a slide glass, and thus image of the stained sample was obtained by a Carl Zeiss LSM710 confocal microscope. Each of the images was sequentially taken with respect to the tissue having a thickness in a range of about 100 um to about 300 um as an axis, and then all the sub-images were projected in a z-axis direction. Thus the image is a projection image. Platelet endothelial cell adhesion molecule (PECAM-1) is also referred to as cluster of differentiation 31 (CD31), which is found in platelets or monocytes and on a surface of some types of T-cells, and constitutes most of endothelial cell intercellular junction. […] The measured fluorescent density denotes a density of endothelial cells, that is, blood vessels. Also, in terms of kidney tissue sections and pancreas tissue section, Fluorescein labeled Lycopersicon esculentum (tomato) lectin (hereinafter, also referred to as “Fluorescein-lectin”) was used as a tracer to verify blood vessel functionality of the sample. […]

C57BL/6 mice [3] = experiment: Immunohistochemical assay (anti-PECAM-1) on mouse ear skin whole-mount; type: in vivo
Description: as §1
After 3 months, ear skin from both ears, trachea, both retinas, both kidneys, and pancreas were obtained from a mouse selected from each group of mice. In order to obtain these organs, the mouse was anesthetized by intraperitoneal injection of 100 mg/kg of […] (Entobal®) based on the weight of the mouse, […] of 1% paraformaldehyde was flowed through the heart to remove the blood in the body of the mouse. The organs were surgically obtained, and tissue from each of the organs was fixed in 4% of paraformaldehyde for 24 hours to prepare a frozen section having a thickness of 10 um. Immunofluorescence staining using anti-PECAM-1 antibody was performed on a sample of the frozen section. For the immunofluorescence staining, the sample was blocked in a solution containing 5% donkey serum in phosphate buffered solution (PBS) containing 0.3% Triton-X 100 (0.3% PBST) for 1 hour. The anti-PECAM-1 antibody produced from American hamster was added to the solution to allow a primary reaction with antigen of the tissue at 4° C. for 12 hours. The sample was washed 6 times for 10 minutes with 0.3% PBS-T, and an anti-American hamster-Alexa594 antibody was added to 0.3 PBS-T to allow a secondary reaction with the anti-PECAM-1 antibody at 4° C. for 12 hours. The sample was washed 6 times for 10 minutes, attached to a slide glass, and thus image of the stained sample was obtained by a Carl Zeiss LSM710 confocal microscope. […] The measured fluorescent density denotes a density of endothelial cells, that is, blood vessels. […]

Tie2 = experiment: Microarray analysis of gene expression in soleus muscle (Tie2); type: in vivo, mouse; settings: middle (15 month-old) and old (20 month-old) mice, 2.0 mg/kg/d for 3 months
Description: (§3) In FIG. 9, a vertical axis denotes an expression amount of VEGF or Tie2 gene (fluorescent intensity: arbitrary unit), and a horizontal axis denotes a mouse subject. […] The microarray analysis was performed by using Agilent's Mouse Oligo Microarray (44K, Agilent Technology). 5 months-old, 15 months-old, and 20 months-old C57BL/6J mice had 2 mg/kg/d of dapsone for 3 months. […] After the 3 months, the 8 months-old, 18 months-old, and 23 months-old mice were anesthetized by injecting Entobar (sodium pentobarbital, 100 mg/kg per body weight), and then soleus muscle taken therefrom for microarray analysis was frozen. Ribonucleic acid was isolated from the muscle and used for the microarray analysis.

VEGF = experiment: Microarray analysis of gene expression in soleus muscle (VEGF); type: in vivo, mouse; settings: middle (15 month-old) and old (20 month-old) mice, 2.0 mg/kg/d for 3 months
Description: as §3

C57BL/6 mice [4] = experiment: Fluorescein-lectin tracking and immunohistochemical assay on kidney section; type: in vivo, mouse; settings: old mice, 2.0 mg/kg/d for 3 months
Description: as §1, §2

[5] = old mice (27 months-old), 2.0 mg/kg/d for 3 months (O2 vs O0)

## Nc1ccc(S(=O)(=O)c2ccc(N)cc2)cc1 [dapsone, 4-[(4-aminobenzene)sulfonyl]aniline]
VEGFR2
  phosphorylation of VEGFR2 at T1175, T1059 and T1054 vs control group: significantly increased phosphorylation
C57BL/6 mice [1]
  amount of blood vessels with decreased functionality (Fluorescein-lectin negative): reduced
C57BL/6 mice [2]; old mice (27 months-old), 0.5 mg/kg/d for 3 months (O0.5 vs O0)
  blood vessel density (PECAM-1 Alexa 594 fluorescence intensity) vs control group: significant difference
C57BL/6 mice [2]; [5]
  blood vessel density (PECAM-1 Alexa 594 fluorescence intensity) vs control group: significant difference
C57BL/6 mice [2]; young mice (7 months-old), 0.5 mg/kg/d in drinking water for 3 months (Y0.5 vs Y0)
  blood vessel density (PECAM-1 Alexa 594 fluorescence intensity) vs control group: no significant difference
C57BL/6 mice [2]; young mice (7 months-old), 2.0 mg/kg/d in drinking water for 3 months (Y2 vs Y0)
  blood vessel density (PECAM-1 Alexa 594 fluorescence intensity) vs control group: no significant difference
C57BL/6 mice [3]; [5]
  blood vessel density (PECAM-1 Alexa 594 fluorescence intensity) vs control group: significant difference
C57BL/6 mice [3]; young mice (7 months-old), 0.5 mg/kg/d for 3 months (Y0.5 vs Y0)
  blood vessel density (PECAM-1 Alexa 594 fluorescence intensity) vs control group: no significant difference
C57BL/6 mice [3]; young mice (7 months-old), 2.0 mg/kg/d for 3 months (Y2 vs Y0)
  blood vessel density (PECAM-1 Alexa 594 fluorescence intensity) vs control group: no significant difference
Tie2
  level of Tie2 gene expression vs control groups: did not change significantly
VEGF
  expression of VEGF gene vs control groups: increased
C57BL/6 mice [4]
  blood vessel functionality (Fluorescein-lectin perfusion of PECAM-1 positive vessels): recovered to the similar level of the control group
